Format in all cases: cell-based
For data set [1], the system named is panel of 27 Gram-positive pathogens. The data set can be described thus: MIC assay, panel of Gram-positive pathogens. The following applies: Staphylococcus aureus; range over panel of 27 Gram-positive pathogens incl. VRSA and resistant Enterococcal strains (FIG. 6); read-out: minimum inhibitory concentrations. As for the experimental part:
Bacterial strains and growth conditions. S. aureus strains were grown in tryptic soy broth (TSB) (BD, Franklin Lakes, N.J., USA). E. faecium and E. faecalis strains were grown in brain-heart infusion (BHI) broth (BD, Franklin Lakes, N.J., USA), and four Gram-negative species, Klebsiella pneumoniae, Acinetobacter baumannii, Pseudomonas aeruginosa, and Enterobacter aerogenes were grown in Luria Bertani (LB) broth (BD, Franklin Lakes, N.J., USA). All bacteria were grown at 37° C. at 200 r.p.m.
Minimal inhibitory concentration (MIC) assay. The MICs of antibiotics were determined by the standard micro-dilution method recommended by the Clinical and Laboratory Standards Institute. MIC assays were conducted in biological triplicate.

The subject of data set [2] is S. aureus MW2. In words: Membrane fluidity assay (Laurdan GP). The following applies: 1 h. As to the method: Membrane fluidity assay. Bacterial membrane fluidity was estimated by slightly modifying previously described methods. An overnight culture of S. aureus MW2 was diluted 1:1,000 in 25 mL TSB. The diluted culture was grown to OD600˜1.5 at 37° C. with shaking at 200 rpm, followed by 10 min incubation with 10 μM Laurdan at room temperature in the dark (Sigma-Aldrich, Cat # 40227). The stained cell culture was washed with PBS 4 times and concentrated 2 times. 100 μL of the 2-fold concentrated culture was mixed with 100 μL of phosphate buffered saline (PBS) containing twice the desired concentrations of compounds in black, clear-bottom, 96-well plates (Corning no. 3904). After 1 h incubation at room temperature in the dark, the Laurdan fluorescence intensities were measured using a spectrophotometer (SpectraMax M2, Molecular Devices) with emission wavelengths of 435 nm and 490 nm upon excitation at 350 nm. The Laurdan GP was calculated using the formula GP=(I435−I490)/(I435+I490). All experiments were conducted in biological triplicate.

For data set [3], the system named is HKC-8 human renal proximal cells. In words: Mammalian membrane permeability assay (SYTOX Green). The following applies: up to 64 μg/mL. As for the experimental part: Mammalian membrane permeability assay. Human renal proximal tubular epithelial cells (HKC-8) were grown in Dulbecco' s modified Eagle F-12 media mixed 1:1 with Ham's F-12 (DMEM/F-12, Life Technologies, Carlsbad, Calif., USA) supplemented with 10% FBS and 4 mM L-glutamine at 37° C. in 5% CO2. For membrane permeability assays, HKC-8 was cultured in black, clear-bottom, 96-well plates (Corning no. 3904) in 100 μl/well of the growth media to reach ˜70% confluence. After washing the cells twice with PBS, 50 μl of 0.25 μM SYTOX Green was added to each well. After incubating the cells at 37° C. in 5% CO2 for 15 min, the cells were treated with a range of concentrations of bithionol or the cholesterol binding detergent saponin (positive control). Fluorescence was measured at room temperature using a spectrophotometer (SpectraMax M2, Molecular Devices) with excitation and emission wavelengths of 485 nm and 525 nm, respectively. The assay was carried out in biological duplicate.
To visualize HKC-8 cells with compromised membranes, HKC-8 was cultured in 24-well plates (Corning no. 3527) until —70% confluence. After washing the cells twice with PBS, 500 μl of 1 μM SYTOX Green was added to each well. The cells were incubated at 37° C. in 5% CO2 for 15 min and then treated with 32 μg/mL (final concentration) bithionol or saponin for 1 h. […]

Data set [4] deals with S. aureus MW2. The data set can be described thus: Transmission electron microscopy. The following applies: 10× MIC, 2 h. As for the experimental part:
Transmission electron microscopy. S. aureus MW2 was grown to exponential phase (OD600=˜0.4) at 37° C. Bacterial cultures were then treated with 10× MIC of bithionol or 0.1% DMSO (control) at 37° C. for 2 h. 1 mL of the treated bacterial samples were fixed with the same volume of a 2× fixative, a mixture of 5% glutaraldehyde, 2.5% paraformaldehyde and 0.06% picric acid in 0.2 M sodium cacodylate buffer (pH 7.4). Fixed cells were washed in 0.1 M cacodylate buffer and post-fixed with 1% Osmium tetroxide (OsO4)/1.5% Potassium ferrocyanide (KFeCN6) for 1 h. The fixed cells were washed twice in water, once in maleate buffer, and incubated in the maleate buffer containing 1% uranyl acetate for lh. Cells were then washed twice in water and subsequently dehydrated in an alcohol gradient series (10 min each; 50%, 70%, 90%, 2×10 min 100%). The cells were then incubated in propyleneoxide for 1 h, infiltrated overnight in a 1:1 mixture of propyleneoxide and Spurr's low viscosity resin (Electron Microscopy sciences, Hatfield, Pa.) and polymerized at 60° C. for 48 h. Ultrathin sections (about 60 nm) were cut on a Reichert Ultracut-S microtome (Leica Microsystem, Wetzlar, Germany), picked up onto copper grids, and stained with lead citrate. Micrographs of the cells were taken using a JEOL 1200EX transmission electron microscope (Harvard Medical School EM facility).

Structures are written as SMILES. Converted amounts (≈) assume the structure as drawn.

In the case of `Oc1c(Cl)cc(Cl)cc1Sc1cc(Cl)cc(Cl)c1O` [bithionol, 6,6′-thio-bis-(2,4-dichlorophenol)], in data set [1], the MIC is 0.5 to 2 µg/mL (≈ 1.4 to 5.62 µM). For the same molecule, in the data set on S. aureus MW2 [2], the “concentrations inducing a significant decrease in Laurdan GP” value is reported as “over 8 μg/mL”. The “SYTOX Green membrane permeabilization of HKC-8 cells” value in data set [3] is “did not induce SYTOX Green membrane permeabilization”. The TEM findings entry with S. aureus MW2 [4] is given as “disrupts MRSA membranes”.

For the origin of these results see US20220324796A1, “ANTIBIOTIC COMPOUNDS” (The General Hospital Corporation, priority 2019, published 2022).
